In patent publication US20220380368A1, “SPIROCYCLIC ANDROGEN RECEPTOR PROTEIN DEGRADERS” (THE REGENTS OF THE UNIVERSITY OF MICHIGAN, priority 2019, published 2022):
Like-named read-outs stand apart in the source and are kept apart here.

What was measured:
AR protein = target: T1, AR protein (Homo sapiens, UniProt P10275); assay: Western blotting analysis of AR protein levels in VCaP cells, band quantification, DC50/DC90; assay type: cell-based
T1 construct: endogenous in cells; host or cells: VCaP
T1 sequence (P10275 1-920): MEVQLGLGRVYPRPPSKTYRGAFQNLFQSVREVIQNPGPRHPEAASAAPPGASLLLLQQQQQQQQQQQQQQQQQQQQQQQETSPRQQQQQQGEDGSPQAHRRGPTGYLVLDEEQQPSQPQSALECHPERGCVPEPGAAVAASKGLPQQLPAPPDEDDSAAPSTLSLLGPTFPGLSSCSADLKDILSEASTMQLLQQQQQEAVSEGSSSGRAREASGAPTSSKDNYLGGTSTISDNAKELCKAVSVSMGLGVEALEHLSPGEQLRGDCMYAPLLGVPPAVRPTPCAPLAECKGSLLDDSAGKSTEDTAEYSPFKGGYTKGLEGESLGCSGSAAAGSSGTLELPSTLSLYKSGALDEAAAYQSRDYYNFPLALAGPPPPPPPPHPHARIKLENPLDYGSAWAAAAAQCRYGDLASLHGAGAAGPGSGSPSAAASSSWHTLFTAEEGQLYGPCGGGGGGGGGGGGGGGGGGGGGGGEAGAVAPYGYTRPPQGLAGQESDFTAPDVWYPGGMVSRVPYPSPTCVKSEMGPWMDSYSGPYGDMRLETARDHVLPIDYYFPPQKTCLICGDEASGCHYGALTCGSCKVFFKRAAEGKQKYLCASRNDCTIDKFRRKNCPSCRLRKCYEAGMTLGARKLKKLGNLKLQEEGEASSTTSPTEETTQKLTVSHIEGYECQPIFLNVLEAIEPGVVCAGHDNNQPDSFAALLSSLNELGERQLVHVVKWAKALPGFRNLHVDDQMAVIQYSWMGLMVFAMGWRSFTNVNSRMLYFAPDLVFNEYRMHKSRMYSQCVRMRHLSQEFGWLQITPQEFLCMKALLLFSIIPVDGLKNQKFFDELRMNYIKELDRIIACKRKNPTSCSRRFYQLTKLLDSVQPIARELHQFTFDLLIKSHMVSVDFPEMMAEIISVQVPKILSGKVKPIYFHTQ
How it was run: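 VCaP cells treated with compounds, lysed in RIPA and probed for AR by Western blot with GAPDH loading control. Band intensities normalised to GAPDH; DC50 from curve fit, DC90 calculated from DC50 and Hill slope via four-parameter equation.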

[1] = Mouse PK studies after oral and IV dosing; assay type: in vivo; conditions: for F: PO 3 mg/kg vs IV 1 mg/kg; for AUC(0-t) / clearance / half-life / Vd / Cmax / Tmax: in vivo; for clearance: read-out: IV Cl (converted); for Vd: read-out: IV VSS
Description: The pharmacokinetics of representative Compounds of the Disclosure were determined after oral and IV dosing at the concentrations indicated in mouse (Table 7). […] The vehicles used in these studies are either (i) 10% PEG400+90% PBS (adjusted to pH to 8.0 by 0.5 N NaOH); or (ii) 100% PEG200.

[2] = iv, 1 mg/kg, IV, dose 1 mg/kg, read-out: IV AUC(0 − t)
[3] = iv, 1 mg/kg, IV, dose 1 mg/kg, read-out: IV T1/2 (converted)
[4] = po, 3 mg/kg, PO, dose 3 mg/kg, read-out: PO AUC(0 − t)
[5] = po, 3 mg/kg, PO, dose 3 mg/kg, read-out: PO T1/2 (converted)
[6] = VCaP cells, Table 6; read-out: VCaP DC50

C[C@H]1CC2(CCN(c3ccc(C(=O)N4CCN(C5CN(c6ccc7c(c6)C(=O)N(C6CCC(=O)NC6=O)C7=O)C5)CC4)cc3F)CC2)CN1c1ccc(C#N)c(Cl)c1 (stereo partly drawn) [Cpd. No. 510, 2-chloro-4-((3S)-8-(4-(4-(1-(2-(2,6-dioxopiperidin-3-yl)-1,3-dioxoisoindolin-5-yl)azetidin-3-yl)piperazine-1-carbonyl)-2-fluorophenyl)-3-methyl-2,8-diazaspiro[4.5]decan-2-yl)benzonitrile]
DC50 (AR protein; read-out: VCaP DC50; VCaP cells, Table 6): < 1 nM
F [1]: 51%
AUC(0-t) [1, 2]: 4080 ng·h/mL
clearance ([1]; iv, 1 mg/kg, IV, dose 1 mg/kg): 3.33 mL/min/kg
half-life [1, 3]: 8.3 h
Vd ([1]; iv, 1 mg/kg, IV, dose 1 mg/kg): 2.1 L/kg
Cmax ([1]; po, 3 mg/kg): 518 ng/mL
Tmax ([1]; po, 3 mg/kg): 2.7 h
AUC(0-t) [1, 4]: 6270 ng·h/mL
half-life [1, 5]: 7.2 h

C[C@H]1CC2(CCN(c3cnc(C(=O)N4CCC(CN5CCN(c6ccc7c(c6)C(=O)N(C6CCC(=O)NC6=O)C7=O)CC5)CC4)cn3)CC2)CN1c1ccc(C#N)c(Cl)c1 (stereo partly drawn) [Cpd. No. 492, 2-chloro-4-((3S)-8-(5-(4-((4-(2-(2,6-dioxopiperidin-3-yl)-1,3-dioxoisoindolin-5-yl)piperazin-1-yl)methyl)piperidine-1-carbonyl)pyrazin-2-yl)-3-methyl-2,8-diazaspiro[4.5]decan-2-yl)benzonitrile]
DC50 (AR protein; [6]): 1 to 10 nM
F [1]: 15%
AUC(0-t) [1, 2]: 277 ng·h/mL
clearance ([1]; iv, 1 mg/kg, IV, dose 1 mg/kg): 54.5 mL/min/kg
half-life [1, 3]: 3.3 h
Vd ([1]; iv, 1 mg/kg, IV, dose 1 mg/kg): 7.71 L/kg
Cmax ([1]; po, 3 mg/kg): 59 ng/mL
Tmax ([1]; po, 3 mg/kg): 0.5 h
AUC(0-t) [1, 4]: 123 ng·h/mL
half-life [1, 5]: 2.1 h

C[C@H]1CC2(CCN(c3ccc(C(=O)N4CCN(C5CCN(c6ccc7c(c6)C(=O)N(C6CCC(=O)NC6=O)C7=O)CC5)CC4)cc3F)CC2)CN1c1ccc(C#N)c(Cl)c1 (stereo partly drawn) [Cpd. No. 522, 2-chloro-4-((3S)-8-(4-(4-(1-(2-(2,6-dioxopiperidin-3-yl)-1,3-dioxoisoindolin-5-yl)piperidin-4-yl)piperazine-1-carbonyl)-2-fluorophenyl)-3-methyl-2,8-diazaspiro[4.5]decan-2-yl)benzonitrile]
DC50 (AR protein; [6]): < 1 nM
IV AUC(0 − t) ([1]; IV, dose 1 mg/kg): 1723 ng·h/mL
IV Cl ([1]; IV, dose 1 mg/kg): 8.3 mL/min/kg
IV T1/2 ([1]; IV, dose 1 mg/kg): 8.6 h
IV VSS ([1]; IV, dose 1 mg/kg): 4.6 L/kg
F [1]: 33%
PO AUC(0 − t) ([1]; PO, dose 3 mg/kg): 1731 ng·h/mL
PO Cmax ([1]; PO, dose 3 mg/kg): 196 ng/mL
PO T1/2 ([1]; PO, dose 3 mg/kg): 6.0 h
PO Tmax ([1]; PO, dose 3 mg/kg): 2.0 h

C[C@H]1CC2(CCN(c3ccc(C(=O)N4CCN(CC5CN(c6ccc7c(c6)C(=O)N(C6CCC(=O)NC6=O)C7=O)C5)CC4)c(F)c3)CC2)CN1c1ccc(C#N)c(Cl)c1 (stereo partly drawn) [Cpd. No. 529, 2-chloro-4-((3S)-8-(4-(4-((1-(2-(2,6-dioxopiperidin-3-yl)-1,3-dioxoisoindolin-5-yl)azetidin-3-yl)methyl)piperazine-1-carbonyl)-3-fluorophenyl)-3-methyl-2,8-diazaspiro[4.5]decan-2-yl)benzonitrile]
DC50 (AR protein; [6]): 1 to 10 nM
F [1]: 45%
AUC(0-t) [1, 2]: 5130 ng·h/mL
clearance ([1]; iv, 1 mg/kg, IV, dose 1 mg/kg): 3.33 mL/min/kg
half-life [1, 3]: 10.2 h
Vd ([1]; iv, 1 mg/kg, IV, dose 1 mg/kg): 2.2 L/kg
Cmax ([1]; po, 3 mg/kg): 507 ng/mL
Tmax ([1]; po, 3 mg/kg): 3.3 h
AUC(0-t) [1, 4]: 6920 ng·h/mL
half-life [1, 5]: 8.5 h

C[C@H]1CC2(CCN(c3ccc(C(=O)N4CCN(CC5CN(c6cc7c(cc6F)C(=O)N(C6CCC(=O)NC6=O)C7=O)C5)CC4)nn3)CC2)CN1c1ccc(C#N)c(Cl)c1 (stereo partly drawn) [Cpd. No. 485, 2-chloro-4-((3S)-8-(6-(4-((1-(2-(2,6-dioxopiperidin-3-yl)-6-fluoro-1,3-dioxoisoindolin-5-yl)azetidin-3-yl)methyl)piperazine-1-carbonyl)pyridazin-3-yl)-3-methyl-2,8-diazaspiro[4.5]decan-2-yl)benzonitrile]
DC50 (AR protein; [6]): 1 to 10 nM
F [1]: 73%
AUC(0-t) [1, 2]: 2350 ng·h/mL
clearance ([1]; iv, 1 mg/kg, IV, dose 1 mg/kg): 6.5 mL/min/kg
half-life [1, 3]: 9.8 h
Vd ([1]; iv, 1 mg/kg, IV, dose 1 mg/kg): 2.95 L/kg
Cmax ([1]; po, 3 mg/kg): 1100 ng/mL
Tmax ([1]; po, 3 mg/kg): 1 h
AUC(0-t) [1, 4]: 5150 ng·h/mL
half-life [1, 5]: 7.2 h

C[C@H]1CC2(CCN(c3ccc(C(=O)N4CCN(C5CCN(c6ccc7c(c6)C(=O)N(C6CCC(=O)NC6=O)C7=O)CC5)CC4)cc3F)CC2)CN1c1ccc(C#N)c(Cl)c1 (stereo partly drawn) [Cpd. No. 521, 2-chloro-4-((3S)-8-(4-(4-(1-(2-(2,6-dioxopiperidin-3-yl)-1,3-dioxoisoindolin-5-yl)piperidin-4-yl)piperazine-1-carbonyl)-2-fluorophenyl)-3-methyl-2,8-diazaspiro[4.5]decan-2-yl)benzonitrile]
DC50 (AR protein; [6]): < 1 nM
F [1]: 30%
AUC(0-t) [1, 2]: 2990 ng·h/mL
clearance ([1]; iv, 1 mg/kg, IV, dose 1 mg/kg): 5 mL/min/kg
half-life [1, 3]: 8.2 h
Vd ([1]; iv, 1 mg/kg, IV, dose 1 mg/kg): 3.1 L/kg
Cmax ([1]; po, 3 mg/kg): 344 ng/mL
Tmax ([1]; po, 3 mg/kg): 1.7 h
AUC(0-t) [1, 4]: 2730 ng·h/mL
half-life [1, 5]: 7 h

C[C@H]1CC2(CCN(c3ccc(C(=O)N4CCC(CN5Cc6cc7c(cc6C5)C(=O)N(C5CCC(=O)NC5=O)C7=O)CC4)nn3)CC2)CN1c1ccc(C#N)c(Cl)c1 (stereo partly drawn) [Cpd. No. 496, 2-chloro-4-((3S)-8-(6-(4-((6-(2,6-dioxopiperidin-3-yl)-5,7-dioxo-3,5,6,7-tetrahydropyrrolo[3,4-f]isoindol-2(1H)-yl)methyl)piperidine-1-carbonyl)pyridazin-3-yl)-3-methyl-2,8-diazaspiro[4.5]decan-2-yl)benzonitrile]
DC50 (AR protein; [6]): < 1 nM
F [1]: 72%
AUC(0-t) [1, 2]: 3030 ng·h/mL
clearance ([1]; iv, 1 mg/kg, IV, dose 1 mg/kg): 5.33 mL/min/kg
half-life [1, 3]: 5.8 h
Vd ([1]; iv, 1 mg/kg, IV, dose 1 mg/kg): 1.46 L/kg
Cmax ([1]; po, 3 mg/kg): 1420 ng/mL
Tmax ([1]; po, 3 mg/kg): 1 h
AUC(0-t) [1, 4]: 6550 ng·h/mL
half-life [1, 5]: 4.1 h

C[C@H]1CC2(CCN(c3ccc(C(=O)N4CCN(CC5CN(c6ccc7c(c6)C(=O)N(C6CCC(=O)NC6=O)C7=O)C5)CC4)nn3)CC2)CN1c1ccc(C#N)c(Cl)c1 (stereo partly drawn) [Cpd. No. 484, 2-chloro-4-((3S)-8-(6-(4-((1-(2-(2,6-dioxopiperidin-3-yl)-1,3-dioxoisoindolin-5-yl)azetidin-3-yl)methyl)piperazine-1-carbonyl)pyridazin-3-yl)-3-methyl-2,8-diazaspiro[4.5]decan-2-yl)benzonitrile]
DC50 (AR protein; [6]): 1 to 10 nM
F [1]: 46%
AUC(0-t) [1, 2]: 7770 ng·h/mL
clearance ([1]; iv, 1 mg/kg, IV, dose 1 mg/kg): 2 mL/min/kg
half-life [1, 3]: 6.1 h
Vd ([1]; iv, 1 mg/kg, IV, dose 1 mg/kg): 0.62 L/kg
Cmax ([1]; po, 3 mg/kg): 2380 ng/mL
Tmax ([1]; po, 3 mg/kg): 1.3 h
AUC(0-t) [1, 4]: 10600 ng·h/mL
half-life [1, 5]: 4.5 h

C[C@H]1CC2(CCN(c3cnc(C(=O)N4CCC(N5CCN(c6ccc7c(c6)C(=O)N(C6CCC(=O)NC6=O)C7=O)CC5)CC4)cn3)CC2)CN1c1ccc(C#N)c(Cl)c1 (stereo partly drawn) [Cpd. No. 497, 2-chloro-4-((3S)-8-(5-(4-(4-(2-(2,6-dioxopiperidin-3-yl)-1,3-dioxoisoindolin-5-yl)piperazin-1-yl)piperidine-1-carbonyl)pyrazin-2-yl)-3-methyl-2,8-diazaspiro[4.5]decan-2-yl)benzonitrile]
DC50 (AR protein; [6]): < 1 nM
F [1]: 30%
AUC(0-t) [1, 2]: 849 ng·h/mL
clearance ([1]; iv, 1 mg/kg, IV, dose 1 mg/kg): 18.8 mL/min/kg
half-life [1, 3]: 2.7 h
Vd ([1]; iv, 1 mg/kg, IV, dose 1 mg/kg): 2 L/kg
Cmax ([1]; po, 3 mg/kg): 336 ng/mL
Tmax ([1]; po, 3 mg/kg): 0.5 h
AUC(0-t) [1, 4]: 760 ng·h/mL
half-life [1, 5]: 2 h

C[C@H]1CC2(CCN(c3ccc(C(=O)N4CCC(N5CCN(c6cc7c(cc6F)C(=O)N(C6CCC(=O)NC6=O)C7=O)CC5)CC4)nn3)CC2)CN1c1ccc(C#N)c(Cl)c1 (stereo partly drawn) [Cpd. No. 500, 2-chloro-4-((3S)-8-(6-(4-(4-(2-(2,6-dioxopiperidin-3-yl)-6-fluoro-1,3-dioxoisoindolin-5-yl)piperazin-1-yl)piperidine-1-carbonyl)pyridazin-3-yl)-3-methyl-2,8-diazaspiro[4.5]decan-2-yl)benzonitrile]
DC50 (AR protein; [6]): 1 to 10 nM
F [1]: 60%
AUC(0-t) [1, 2]: 1880 ng·h/mL
clearance ([1]; iv, 1 mg/kg, IV, dose 1 mg/kg): 7.83 mL/min/kg
half-life [1, 3]: 2.6 h
Vd ([1]; iv, 1 mg/kg, IV, dose 1 mg/kg): 1.53 L/kg
Cmax ([1]; po, 3 mg/kg): 711 ng/mL
Tmax ([1]; po, 3 mg/kg): 1.7 h
AUC(0-t) [1, 4]: 3750 ng·h/mL
half-life [1, 5]: 2 h
